Test system: ISG expression in healthy control PBMCs
Test: Healthy PBMC type I IFN signaling gene expression array, IFNα2-stimulated
Type: cell-based, human
Details: IFNα2 20 ng/mL, 2 µM, 16 h
Description: NEM). Cell lysates were clarified by centrifugation at 15,000 g for 10 minutes at 4 °C. Clarified lysates were pre-cleared with control uncoupled agarose beads (UM400, LifeSensors) for 30 minutes on a rotator at 4 °C followed by centrifugation at 5,000 g for 2 minutes. Equal amount of pre-cleared lysates from individual samples were incubated with 20 µL Agarose-TUBE beads (pre-equilibrated with 1X Tris-buffered saline (TBS)) overnight on a rotator at 4 °C. Beads were collected by centrifugation at 5,000 g for 2 minutes at RT followed by four stringent washes with 1X TBST (TBS, 0.1% Tween-20). TUBE-pulldown proteins were eluted by boiling Agarose-TUBE beads in 2X LDS sample buffer supplemented with […] DTT for 15 minutes. Eluted proteins were resolved on NuPAGE™ 4–12% Bis–Tris gel followed by Western blotting using anti-IFNAR1 antibody (ab124764, Abcam).
PBMCs in vitro experiments
Peripheral blood mononuclear cells (PBMCs) from healthy and SSc donors were separated using density gradient method (Leucosep™, Greiner Bio-One International) from EDTA anticoagulated peripheral blood; isolated cells were washed twice by PBS. PBMCs were then incubated in RPMI1640 […]
For healthy PBMCs, cells were stimulated with 20 ng/mL of IFN (+/- compounds or DMSO). […] Concentration of CXCL10 was determined according to a 4-parameter logistic regression standard curve. […]
For Type I IFN signalling analysis, the human IFN I RT2 Profiler PCR Array (Qiagen, PAMM-016ZE) was performed on available RNA from healthy (n=3) and SSc (n=9) donors. […] Relative expression for each gene was determined, firstly by ∆CT calculated using the geometric mean of 4 housekeeping genes (ACTB, GAPDH, HPRT1, RPLP0), followed by 2^(-∆CT), and expressed as fold change to control, according to manufacturer’s guidance. IFN2α-induced ISGs in healthy donors were determined using a Student’s t-test (two-tail distribution and equal variances) on the triplicate fold change in 2^(-ΔCT) values between […]
R Foundation for Statistical Computing). The IFN2α inducible genes determined in healthy donors […]

Structure (SMILES) | IFN-induced ISG expression (in words) | number of the 34 IFN-upregulated ISGs suppressed compared to AP-5-145
Cn1cc(NC(=O)c2c(Cl)cccc2Cl)c(C(=O)NC2CCN(C(=O)c3c(Cl)cccc3Cl)CC2)n1 [AP-5-145] | no difference in ISG expression profile | –
O=C(NC1CCNCC1)c1nn(C(=O)c2c(Cl)cccc2Cl)cc1NC(=O)c1c(Cl)cccc1Cl [JMS-175-2] | – | 13
O=C(NC1C2CNCC21)c1nn(C(=O)c2c(Cl)cccc2Cl)cc1NC(=O)c1c(Cl)cccc1Cl (stereo not drawn) [FX-171-C] | less reduction in ISG expression | –
